We go through one compound from patent US11655297B2, “ILDR2 antagonists and combinations thereof” (Bayer Aktiengesellschaft, priority 2017, dated 2023).

The structures appear in SMILES notation.

This test has as its system B16-F10 OVA tumor model. Kind of test: B16-F10 OVA model, combination with Docetaxel. To be noted: for Mean tumor size: BAY 1905254 10 mg/kg i.p. q3d×3 starting day 8, Docetaxel once 20 mg/kg i.v. on day 8.

Method: Eight weeks old female C57B1/6N Cr1 BR mice (body weight 18-20 g) from Charles River Deutschland, Sulzfeld were used for the B16-F10 OVA tumor model. The model is a derivative of the B16F10 cell line expressing the allo-antigen ovalbumin which can be recognized by antigen-specific T cells. The experiment was initiated after an acclimatization period of 5 days. Animals were kept in a 12-hour light/dark cycle. Food and water was available ad libitum. Housing temperature was maintained at 21° C. Mice (n=12 per group) were s.c. inoculated with 1×10^4 B16F10 OVA tumor cells into the left flank and assigned to experimental groups. At treatment initiation, animals were marked and each cage was labeled with the cage number, study number and the number of animals per cage.
Agents were dosed i.p. at 10 mg/kg q3d×3, starting day 8.

Regarding `CC(=O)O[C@@]12CO[C@@H]1C[C@H](O)[C@@]1(C)C(=O)[C@H](O)C3=C(C)[C@@H](OC(=O)[C@H](O)[C@@H](NC(=O)OC(C)(C)C)c4ccccc4)C[C@@](O)([C@@H](OC(=O)c4ccccc4)[C@H]21)C3(C)C` [Docetaxel, reference compound], under “B16-F10 OVA, BAY 1905254 10 mg/kg i.p. q3d×3, Docetaxel once 20 mg/kg i.v.”, the “tumor size of the treatment group vs. Control (T/C)” value was determined as 0.74. For the same compound, the Mean tumor size runs as follows: (day 8 post inoculation) 86.56 mm3; (day 11 post inoculation) 100.78 mm3; (day 14 post inoculation) 165.78 mm3; (day 16 post inoculation) 305.33 mm3.
